Measured values from ChEMBL document CHEMBL4396894, “The photodynamic activities of dimethyl 131-[2-(guanidinyl)ethylamino] chlorin e6 photosensitizers in A549 tumor” (Eur J Med Chem, 2019).
Calls of active or inactive are those of the source. The calls are words filed in the database; no cut-off is given here.

Experiments:
[1] = system: A549; assay: Dark toxicity in human A549 cells assessed as reduction in cell viability at 0.1 to 0.9 uM after 24 hrs by MTT assay; type: cell-based; settings: a549, 24 h
[2] = system: A549; assay: Dark toxicity in human A549 cells xenografted in BALB/c nude mouse assessed as reduction in tumor growth at 0.15 mg/kg, iv measured up to 14 days; type: organism-based; settings: in vivo, 336 h
[3] = Induction of singlet oxygen generation in DMF solution assessed as singlet oxygen quantum yield irradiated with 650 nanometer laser light for 5 to 30 secs measured immediately by DPBF-based assay; type: functional
[4] = system: A549; assay: Photodynamic cytotoxicity against human A549 cells assessed as reduction in cell viability preincubated for 24 hrs followed by compound washout and subsequent 650 nanometer laser light irradiation at 0.5 J/cm2 measured by MTT assay; type: functional, cell-based; settings: A549, light or radiation study
[5] = system: A549; assay: Photodynamic cytotoxicity against human A549 cells assessed as reduction in cell viability at 0.1 to 0.9 uM preincubated for 24 hrs followed by compound washout and subsequent 650 nanometer laser light irradiation at 0.5 to 2 J/cm2 measured by MTT assay; type: functional, cell-based
[6] = system: A549; assay: Photodynamic cytotoxicity against human A549 cells assessed as reduction in cell viability preincubated for 24 hrs followed by compound washout and subsequent 650 nanometer laser light irradiation at 1 J/cm2 measured by MTT assay; type: functional, cell-based; settings: A549, light or radiation study
[7] = system: A549; assay: Photodynamic cytotoxicity against human A549 cells assessed as reduction in cell viability preincubated for 24 hrs followed by compound washout and subsequent 650 nanometer laser light irradiation at 2 J/cm2 measured by MTT assay; type: functional, cell-based; settings: A549, light or radiation study
[8] = system: A549; assay: Photodynamic antitumor activity against human A549 cells xenografted in BALB/c nude mouse assessed as decrease in tumor growth at 0.15 mg/kg, iv irradiated with laser light at 120 J/cm2 measured up to 14 days; type: functional, organism-based
[9] = system: A549; assay: Photodynamic antitumor activity against human A549 cells xenografted in BALB/c nude mouse assessed as decrease in tumor weight at 0.15 mg/kg, iv irradiated with laser light at 120 J/cm2 measured 13 days post light irradiation; type: functional, organism-based
[10] = system: A549; assay: Photodynamic antitumor activity against human A549 cells xenografted in BALB/c nude mouse assessed as tumor growth inhibition at 0.4 mg/kg, iv irradiated with laser light at 120 J/cm2 measured up to 14 days; type: functional; settings: A549, light or radiation study, 336 h, read-out: TGI
[11] = Absorption property of the compound in DMSO assessed as maximum absorption wavelength at 1 to 20 uM by UV-Vis spectra analysis; type: physicochemical
[12] = Emission property of a compound in DMSO assessed as red shift at 5 uM by 3D fluorescence spectra analysis; type: physicochemical
[13] = Photobleaching property of the compound in DMSO at 10 uM irradiated with 650 nm laser light measured up to 90 mins by absorption spectra analysis
[14] = Drug uptake in human A549 cells measured after 1 to 24 hrs by fluorescence spectrophotometry; type: ADME, cell-based
[15] = system: A549; assay: Photodynamic cytotoxicity against human A549 cells assessed as reduction in cell viability preincubated for 24 hrs followed by compound washout and subsequent 650 nanometer laser light irradiation at 0.5 to 2 J/cm2 measured by MTT assay; type: functional, cell-based
[16] = system: A549; assay: Induction of intracellular ROS generation in human A549 cells at 1 uM preincubated for 4 hrs followed by compound washout measured under 650 nanometer laser light irradiation at 2 J/cm2 by DCFDA dye-based fluorescence microscopic analysis; type: functional, cell-based
[17] = Drug localization in mitochondria of human A549 cells at 1 uM after 4 hrs by mito-tracker green based laser confocal microscopic analysis; type: ADME; settings: a549, 4 h
[18] = Drug localization in lysosome of human A549 cells at 1 uM after 4 hrs by lyso-tracker blue based laser confocal microscopic analysis; type: ADME, subcellular; settings: a549, 4 h
[19] = Drug localization in endoplasmic reticulum of human A549 cells at 1 uM after 4 hrs by DiOC6(3) ER-tracker green based laser confocal microscopic analysis; type: ADME, subcellular; settings: a549, 4 h
[20] = system: A549; assay: Photodynamic antitumor activity against human A549 cells xenografted in BALB/c nude mouse assessed as increase in tumor tissue damage at 0.15 mg/kg, iv irradiated with laser light at 120 J/cm2 measured 24 hrs post light irradiation by H and E staining based histological analysis; type: functional, organism-based
[21] = system: A549; assay: Photodynamic antitumor activity against human A549 cells xenografted in BALB/c nude mouse assessed as increase in tumor tissue damage at 0.15 mg/kg, iv irradiated with laser light at 120 J/cm2 measured 24 hrs post light irradiation by TUNEL staining based histological analysis; type: functional, organism-based
[22] = system: A549; assay: Dark toxicity in human A549 cells xenografted in BALB/c nude mouse assessed as increase in limb tumor tissue damage at 0.15 mg/kg, iv measured 24 hrs post treatment by H and E staining based histological assay; type: organism-based; settings: in vivo
[23] = system: A549; assay: Dark toxicity in human A549 cells xenografted in BALB/c nude mouse assessed as increase in limb tumor tissue damage at 0.15 mg/kg, iv measured 24 hrs post treatment by TUNEL staining based histological assay; type: organism-based; settings: in vivo
[24] = system: A549; assay: Photodynamic antitumor activity against human A549 cells xenografted in BALB/c nude mouse assessed as increase in apoptosis at 0.15 mg/kg, iv irradiated with laser light at 120 J/cm2 measured 24 hrs post light irradiation by H and E staining based histological analysis; type: functional, organism-based
[25] = system: A549; assay: Photodynamic antitumor activity against human A549 cells xenografted in BALB/c nude mouse assessed as increase in necrosis at 0.15 mg/kg, iv irradiated with laser light at 120 J/cm2 measured 24 hrs post light irradiation by H and E staining based histological analysis; type: functional, organism-based
[26] = system: A549; assay: Photodynamic antitumor activity against human A549 cells xenografted in BALB/c nude mouse assessed as increase in apoptosis at 0.15 mg/kg, iv irradiated with laser light at 120 J/cm2 measured 24 hrs post light irradiation by TUNEL staining based histological analysis; type: functional, organism-based
[27] = system: A549; assay: Photodynamic antitumor activity against human A549 cells xenografted in BALB/c nude mouse assessed as increase in necrosis at 0.15 mg/kg, iv irradiated with laser light at 120 J/cm2 measured 24 hrs post light irradiation by TUNEL staining based histological analysis; type: functional, organism-based

Row | Activity [11] [nm] | Activity [12] [nm] | Drug uptake [14] | Drug uptake [17] | Drug uptake [18] | Drug uptake [19] | Compound | Activity [1] | Activity [2] | Activity [3] | IC50 [4] [nM] | IC50 [6] [nM] | IC50 [7] [nM] | Activity [8] | Activity [9] | inhibition in vivo at 0.4 mg/kg [10] [%] | Activity [13] | Activity [15] | Activity [16] | Activity [20] | Activity [21] | further results
1 | – | – | – | – | – | – | Oc1cccc(-c2c3nc(c(-c4cccc(O)c4)c4ccc([nH]4)c(-c4cccc(O)c4)c4nc(c(-c5cccc(O)c5)c5ccc2[nH]5)CC4)C=C3)c1 [TEMOPORFIN] | Non-Toxic | Non-Toxic | 0.47 to 0.48 | 1100 | 779 | 702 | Active | Active | – | – | – | – | – | – | Activity [5]: Active
2 | 403 to 664 | 4 | Active | Active | Active | Active | C=Cc1c(C)c2cc3nc(c(CC(=O)OC)c4[nH]c(cc5nc(cc1[nH]2)C(C)=C5CC)c(C)c4C(=O)NCCN/C(=N\C(=O)OC(C)(C)C)NC(=O)OC(C)(C)C)[C@@H](CCC(=O)OC)[C@@H]3C | Non-Toxic | Non-Toxic | 1.98 | 542 | 397 | 197 | Active | Active | 100 | inactive | Dose-dependent effect | Active | Active | Active | Activity [22]: Non-Toxic; Activity [23]: Non-Toxic; Activity [24]: Active; Activity [25]: Active; Activity [26]: Active; Activity [27]: Active
3 | 403 to 664 | 4 | Active | Active | Active | Active | C=Cc1c(C)c2cc3nc(c(CC(=O)OC)c4[nH]c(cc5nc(cc1[nH]2)C(C)=C5CC)c(C)c4C(=O)NCCNC(=N)N)[C@@H](CCC(=O)OC)[C@@H]3C | Non-Toxic | Non-Toxic | 2.03 | 1260 | 886 | 545 | Active | Active | 100 | inactive | Dose-dependent effect | Active | Active | Active | Activity [22]: Non-Toxic; Activity [23]: Non-Toxic; Activity [24]: Active; Activity [25]: Active; Activity [26]: Active; Activity [27]: Active
